Literature values in US12492208B2, “Crystal of pyrimidine compound” (TAIHO PHARMACEUTICAL CO., LTD., priority 2020, dated 2025).

Key:
brain metastatic cancer = conditions: clinical tests; cited from earlier work
[1] = non-clinical tests; substrates of p-gp or Bcrp; cited from earlier work

Which “effects against brain metastatic cancer” value (brain metastatic cancer) does the source give for `CCOc1cc2ncc(C#N)c(Nc3ccc(OCc4ccccn4)c(Cl)c3)c2cc1NC(=O)/C=C/CN(C)C` [Neratinib] here?
Its value is “sufficient effects of these agents could not be obtained”.

And the brain penetration properties [1]?
Its brain penetration properties is “limited”.
